Patent publication US7432260B2, “Pyrimidine compounds” (Cyclacel Limted, priority 2002, dated 2008)

Key:
[1] = target: CDK1/cyclin B (Homo sapiens, UniProt P06493); experiment: Kinase assay CDK1/cyclin B; format: biochemical; details: Table 2; read-out: Kinase Inhibition IC50 CDK1 cyclin B
How it was run: (§1)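 Enzyme + substrate in β-glycerophosphate/MOPS/EGTA/DTT buffer, pH 7.4 → Mg/ATP (100 μM ATP, γ-32P) start → 30° C incubation → ice stop → P81 or GF/C filtration, H3PO4 wash → scintillation count.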

[2] = target: CDK2/cyclin A (Homo sapiens, UniProt P24941); experiment: Kinase assay CDK2/cyclin A; format: biochemical; details: Table 2; read-out: Kinase Inhibition IC50 CDK2 cyclin A
How it was run: as §1

[3] = target: CDK2/cyclin E (Homo sapiens, UniProt P24941); experiment: Kinase assay CDK2/cyclin E; format: biochemical; details: Table 2; read-out: Kinase Inhibition IC50 CDK2 cyclin E
How it was run: as §1

[4] = target: CDK4/cyclin D1 (Homo sapiens, UniProt P11802); experiment: Kinase assay CDK4/cyclin D1; format: biochemical; details: Table 2; read-out: Kinase Inhibition IC50 CDK4 cyclin D1
Chain of CDK4/cyclin D1 (P11802 whole entry): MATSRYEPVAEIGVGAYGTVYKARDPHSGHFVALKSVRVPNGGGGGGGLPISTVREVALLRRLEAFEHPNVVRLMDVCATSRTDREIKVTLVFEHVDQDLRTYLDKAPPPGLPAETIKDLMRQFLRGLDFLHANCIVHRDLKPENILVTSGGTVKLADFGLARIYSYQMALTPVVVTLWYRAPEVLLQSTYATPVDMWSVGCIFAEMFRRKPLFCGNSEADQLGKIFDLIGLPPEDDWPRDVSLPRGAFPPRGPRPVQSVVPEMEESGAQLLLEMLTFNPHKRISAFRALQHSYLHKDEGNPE
Chain of CDK4/cyclin D1 (P24385 whole entry partner): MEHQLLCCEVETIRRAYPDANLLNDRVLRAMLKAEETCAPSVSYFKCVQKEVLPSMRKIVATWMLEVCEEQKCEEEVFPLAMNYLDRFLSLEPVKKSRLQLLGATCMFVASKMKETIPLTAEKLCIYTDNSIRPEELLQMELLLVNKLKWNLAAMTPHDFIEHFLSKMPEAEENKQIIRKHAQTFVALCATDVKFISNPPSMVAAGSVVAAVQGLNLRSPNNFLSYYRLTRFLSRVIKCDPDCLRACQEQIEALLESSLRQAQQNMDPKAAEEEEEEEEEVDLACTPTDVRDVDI
How it was run: as §1

[5] = target: CDK7/cyclin H (Homo sapiens, UniProt P50613); experiment: CDK7 assay; format: biochemical; details: Table 2; read-out: Kinase Inhibition IC50 CDK7 cyclin H
Chain of CDK7/cyclin H (P50613 whole entry): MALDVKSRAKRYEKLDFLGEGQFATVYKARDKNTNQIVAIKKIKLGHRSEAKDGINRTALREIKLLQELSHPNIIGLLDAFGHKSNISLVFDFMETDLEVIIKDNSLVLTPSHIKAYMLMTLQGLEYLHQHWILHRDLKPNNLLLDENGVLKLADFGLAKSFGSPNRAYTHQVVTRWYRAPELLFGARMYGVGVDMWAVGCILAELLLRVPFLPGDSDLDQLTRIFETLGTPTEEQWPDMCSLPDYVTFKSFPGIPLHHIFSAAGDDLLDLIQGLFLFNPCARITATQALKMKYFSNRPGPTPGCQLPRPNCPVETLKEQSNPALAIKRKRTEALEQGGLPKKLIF
How it was run: (§2)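 Recombinant human CDK7/cyclin H or CDK9/cyclin T1 (0.5–2 μg) phosphorylated biotinylated CTD heptapeptide-repeat substrate for 45 min at 30 °C in MOPS pH 7.2 buffer with 15 mM MgCl2 and 100 μM ATP plus [γ-32P]ATP. After avidin capture on P81 filters and phosphoric acid washes, 32P incorporation was counted by scintillation.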

[6] = target: CDK9/cyclin T1 (Homo sapiens, UniProt P50750); experiment: CDK9 assay; format: biochemical; details: Table 2; read-out: Kinase Inhibition IC50 CDK9 cyclin T1
Chain of CDK9/cyclin T1 (P50750 whole entry): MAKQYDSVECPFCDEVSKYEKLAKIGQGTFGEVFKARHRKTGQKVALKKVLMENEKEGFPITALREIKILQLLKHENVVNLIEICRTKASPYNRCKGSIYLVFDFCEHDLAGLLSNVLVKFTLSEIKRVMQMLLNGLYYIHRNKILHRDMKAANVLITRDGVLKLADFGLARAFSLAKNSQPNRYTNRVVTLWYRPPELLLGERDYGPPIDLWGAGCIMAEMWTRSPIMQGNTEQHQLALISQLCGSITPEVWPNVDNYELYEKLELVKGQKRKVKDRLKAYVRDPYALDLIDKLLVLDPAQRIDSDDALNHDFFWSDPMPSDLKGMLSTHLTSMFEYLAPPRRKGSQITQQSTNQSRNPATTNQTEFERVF
Chain of CDK9/cyclin T1 (O60563 whole entry partner): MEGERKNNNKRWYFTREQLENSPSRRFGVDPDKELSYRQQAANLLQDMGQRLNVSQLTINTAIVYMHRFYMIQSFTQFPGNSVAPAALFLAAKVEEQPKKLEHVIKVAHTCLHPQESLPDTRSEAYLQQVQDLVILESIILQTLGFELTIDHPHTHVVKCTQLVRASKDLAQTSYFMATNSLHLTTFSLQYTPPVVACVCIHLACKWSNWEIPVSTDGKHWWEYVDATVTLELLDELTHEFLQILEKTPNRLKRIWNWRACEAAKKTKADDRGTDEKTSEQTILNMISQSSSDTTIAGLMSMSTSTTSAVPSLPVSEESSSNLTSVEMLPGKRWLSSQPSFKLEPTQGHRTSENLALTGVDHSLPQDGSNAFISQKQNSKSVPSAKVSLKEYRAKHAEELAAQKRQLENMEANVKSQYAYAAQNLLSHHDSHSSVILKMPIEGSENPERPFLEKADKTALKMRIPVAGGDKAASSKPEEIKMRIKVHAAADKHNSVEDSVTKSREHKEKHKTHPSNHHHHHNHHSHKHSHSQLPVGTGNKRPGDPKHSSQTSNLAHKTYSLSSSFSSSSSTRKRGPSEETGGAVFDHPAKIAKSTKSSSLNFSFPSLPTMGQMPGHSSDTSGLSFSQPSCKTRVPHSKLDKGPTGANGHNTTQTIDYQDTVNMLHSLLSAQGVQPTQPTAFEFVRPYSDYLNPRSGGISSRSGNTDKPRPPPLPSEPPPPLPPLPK
How it was run: as §2

[7] = tested on: A549; experiment: 72-h MTT cytotoxicity assay A549; format: cell-based; details: Homo sapiens, A549, 72 h, Table 4
How it was run: (§3)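 Seed cells per doubling time and incubate overnight at 37° C. Add 1/3 dilution series of compound in media, triplicate, 72 h at 37° C. Wash with PBS, add MTT for 4 h in the dark, wash again, solubilise dye in DMSO.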

[8] = tested on: HT29; experiment: 72-h MTT cytotoxicity assay HT29; format: cell-based; details: Homo sapiens, HT-29, 72 h, Table 4
How it was run: as §3

[9] = tested on: Saos-2; experiment: 72-h MTT cytotoxicity assay Saos-2; format: cell-based; details: Homo sapiens, SAOS-2, 72 h, Table 4
How it was run: as §3

[10] = target: GSK-3β (Homo sapiens, UniProt P49841); experiment: Kinase assay GSK-3β; format: biochemical; details: Table 2; read-out: Kinase Inhibition IC50 GSK-3β
Chain of GSK-3β (P49841 whole entry): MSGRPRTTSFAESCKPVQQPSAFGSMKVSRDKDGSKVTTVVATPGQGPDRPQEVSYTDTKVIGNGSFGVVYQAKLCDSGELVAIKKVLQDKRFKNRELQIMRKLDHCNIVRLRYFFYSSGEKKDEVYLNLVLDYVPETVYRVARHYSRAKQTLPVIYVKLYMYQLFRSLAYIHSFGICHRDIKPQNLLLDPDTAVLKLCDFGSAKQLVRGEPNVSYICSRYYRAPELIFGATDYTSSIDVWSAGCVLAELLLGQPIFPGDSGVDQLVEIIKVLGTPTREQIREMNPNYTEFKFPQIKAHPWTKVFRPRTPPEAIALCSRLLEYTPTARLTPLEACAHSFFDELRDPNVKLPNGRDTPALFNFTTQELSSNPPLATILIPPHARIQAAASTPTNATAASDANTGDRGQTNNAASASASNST
Procedure: (§4) Kinase assays. […] This was achieved by measurement of incorporation of radioactive phosphate from ATP into appropriate polypeptide substrates. Recombinant protein kinases and kinase complexes were produced or obtained commercially. Assays were performed using 96-well plates and appropriate assay buffers (typically 25 mM β-glycerophosphate, 20 mM MOPS, 5 mM EGTA, 1 mM DTT, 1 mM […], pH 7.4), into which were added 2-4 μg of active enzyme with appropriate substrates. The reactions were initiated by addition of Mg/ATP mix (15 mM MgCl2+100 μM ATP with 30-50 kBq per well of [γ-^32P]-ATP) and mixtures incubated as required at 30° C. Reactions were stopped on ice, followed by filtration through p81 filterplates or GF/C filterplates (Whatman Polyfiltronics, Kent, UK). After washing 3 times with 75 mM aq orthophosphoric acid, plates were dried, scintillant added and incorporated radioactivity measured in a scintillation counter (TopCount, Packard Instruments, Pangbourne, Berks, UK). Compounds for kinase assay were made-up as 10 mM stocks in DMSO and diluted into 10% DMSO inrassay buffer.

[11] = target: PLK-1 (Homo sapiens, UniProt P53350); experiment: Kinase assay PLK-1; format: biochemical; details: Table 2; read-out: Kinase Inhibition IC50 PLK-1
Chain of PLK-1 (P53350 whole entry): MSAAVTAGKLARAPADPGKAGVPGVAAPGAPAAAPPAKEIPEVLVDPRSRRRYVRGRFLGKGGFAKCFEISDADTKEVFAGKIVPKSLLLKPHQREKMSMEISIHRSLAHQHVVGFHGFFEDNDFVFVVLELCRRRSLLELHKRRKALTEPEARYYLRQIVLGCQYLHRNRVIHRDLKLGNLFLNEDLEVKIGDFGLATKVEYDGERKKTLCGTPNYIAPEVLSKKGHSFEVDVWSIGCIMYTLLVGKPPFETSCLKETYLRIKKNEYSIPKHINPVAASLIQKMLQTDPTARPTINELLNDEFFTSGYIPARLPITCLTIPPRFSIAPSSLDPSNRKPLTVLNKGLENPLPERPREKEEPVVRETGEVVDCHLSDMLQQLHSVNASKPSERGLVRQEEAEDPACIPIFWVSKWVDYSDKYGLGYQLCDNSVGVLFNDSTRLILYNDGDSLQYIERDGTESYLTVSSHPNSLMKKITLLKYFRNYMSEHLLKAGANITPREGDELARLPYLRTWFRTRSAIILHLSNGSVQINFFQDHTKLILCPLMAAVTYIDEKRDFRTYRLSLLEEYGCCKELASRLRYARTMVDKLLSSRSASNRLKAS
Procedure: as §4

Chain of CDK1/cyclin B (P06493 whole entry): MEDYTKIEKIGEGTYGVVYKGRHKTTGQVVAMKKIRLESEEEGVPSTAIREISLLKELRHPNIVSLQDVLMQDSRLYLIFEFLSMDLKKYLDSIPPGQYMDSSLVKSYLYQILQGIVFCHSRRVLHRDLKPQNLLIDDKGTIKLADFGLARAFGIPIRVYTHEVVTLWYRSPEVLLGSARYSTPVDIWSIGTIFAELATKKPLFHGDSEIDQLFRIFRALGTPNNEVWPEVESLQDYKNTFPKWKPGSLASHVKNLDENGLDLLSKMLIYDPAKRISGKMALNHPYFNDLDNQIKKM
Chain of CDK1/cyclin B (P14635 whole entry partner): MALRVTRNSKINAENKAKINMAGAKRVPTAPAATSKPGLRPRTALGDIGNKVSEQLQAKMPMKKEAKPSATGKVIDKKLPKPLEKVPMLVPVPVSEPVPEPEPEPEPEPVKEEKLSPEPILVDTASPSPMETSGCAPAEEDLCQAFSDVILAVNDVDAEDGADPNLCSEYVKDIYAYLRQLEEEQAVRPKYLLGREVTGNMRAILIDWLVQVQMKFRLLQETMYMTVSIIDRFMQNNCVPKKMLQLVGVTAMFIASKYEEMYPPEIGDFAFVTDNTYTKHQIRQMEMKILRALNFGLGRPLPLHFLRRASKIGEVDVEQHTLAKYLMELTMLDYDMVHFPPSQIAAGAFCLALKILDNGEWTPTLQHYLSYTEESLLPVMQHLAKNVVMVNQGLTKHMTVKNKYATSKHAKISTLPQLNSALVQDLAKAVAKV

| SMILES | IC50 [1] | IC50 [2] | IC50 [3] | IC50 [4] | IC50 [5] | IC50 [6] | IC50 [7] | IC50 [8] | IC50 [9] | melting point | IC50 [10] | IC50 [11] |
| --- | --- | --- | --- | --- | --- | --- | --- | --- | --- | --- | --- | --- |
| Cc1nc(C)c(-c2ccnc(Nc3ccc(NC(=O)CCl)cc3)n2)s1 [Compound 50, 2-Chloro-N-{4-[4-(2,4-dimethyl-thiazol-5-yl)-pyrimidin-2-ylamino]-phenyl}-acetamide] | 3400 nM | 890 nM | 390 nM | 950 nM | 13000 nM | 1.8 nM | 160 nM | 160 nM | 160 nM | 217 to 219 °C |  |  |
| Cc1nc(NC(=O)CCN2CCN(C)CC2)sc1-c1ccnc(Nc2cccc([N+](=O)[O-])c2)n1 [Compound 23, N-{4-Methyl-5-[2-(3-nitro-phenylamino)-pyrimidin-4-yl]-thiazol-2-yl}-3-(4-methyl-piperazin-1-yl)-propionamide] | 3100 nM | 1400 nM | 190 nM | 3000 nM | 810 nM | 400 nM | 3800 nM | 1100 nM | 4400 nM |  | 1200 nM | 24000 nM |
| CCNc1nc(C)c(-c2ccnc(Nc3cccc(CNC(C)=O)c3)n2)s1 [Compound 64, N-{3-[4-(2-Ethylamino-4-methyl-thiazol-5-yl)-pyrimidin-2-ylamino]-benzyl}-acetamide] | 740 nM | 310 nM | 80 nM | 130 nM | 590 nM | 100 nM | 190 nM | 410 nM | 340 nM |  | 2100 nM | 18000 nM |
| Cc1nc(NC(=O)CCN2CCOCC2)sc1-c1ccnc(Nc2cccc([N+](=O)[O-])c2)n1 [Compound 22, N-{4-Methyl-5-[2-(3-nitro-phenylamino)-pyrimidin-4-yl]-thiazol-2-yl}-3-morpholin-4-yl-propionamide] | 240 nM | 98 nM | 2.5 nM | 1700 nM | 200 nM | 110 nM | 810 nM | 520 nM | 600 nM |  | 250 nM | > 100000 nM |
| Cc1nc(C)c(-c2ccnc(Nc3ccc(N4CCN(CCCO)CC4)cc3)n2)s1 [Compound 8, 3-(4-{4-[4-(2,4-Dimethyl-thiazol-5-yl)-pyrimidin-2-ylamino]-phenyl}-piperazin-1-yl)-propan-1-ol] | 4900 nM | 1100 nM | 1200 nM | 360 nM | 970 nM | 510 nM | 610 nM | 800 nM | 380 nM |  | 39000 nM | > 150000 nM |
| Cc1nc(C)c(-c2ccnc(Nc3ccc(N4CCNCC4)cc3)n2)s1 [Compound 6, [4-(2,4-Dimethyl-thiazol-5-yl)-pyrimidin-2-yl]-(4-piperazin-1-yl-phenyl)-amine] | 3000 nM | 850 nM | 710 nM | 390 nM | 1300 nM | 1000 nM | 1300 nM | 1100 nM | 780 nM |  | 5200 nM | 13000 nM |
| CC(=O)NCc1cccc(Nc2nccc(-c3sc(C)nc3C)n2)c1 [Compound 66, N-{3-[4-(2,4-Dimethyl-thiazol-5-yl)-pyrimidin-2-ylamino]-benzyl}-acetamide] | 120 nM | 100 nM | 110 nM | 630 nM | 2100 nM |  |  |  |  | 206 to 207 °C |  |  |
| Cc1nc(NC(=O)CCN2CCOCC2)sc1-c1ccnc(Nc2ccc(F)cc2)n1 [Compound 21, N-{5-[2-(4-Fluoro-phenylamino)-pyrimidin-4-yl]-4-methyl-thiazol-2-yl}-3-morpholin-4-yl-propionamide] | 540 nM | 320 nM | 97 nM | 1300 nM | 4900 nM | 460 nM | 8600 nM | 4100 nM | 4300 nM |  | 14000 nM | > 200000 nM |
